In ChEMBL document CHEMBL3259571, “Diacylglycerol lactones targeting the structural features that distinguish the atypical C1 domains of protein kinase C ζ and ι from typical C1 domains” (J Med Chem, 2014):

Experiments:
[1] = target: Protein kinase C delta type (Mus musculus, UniProt P28867); experiment: Displacement of [20-3H]PDBu from GST-tagged full-length mouse PKC-delta C1B domain expressed in Escherichia coli after 2 to 30 mins by polyethylene glycol precipitation assay in presence of phosphatidylserine
[2] = Displacement of [20-3H]PDBu from GST-tagged mouse PKC-delta C1B domain N7R mutant expressed in Escherichia coli after 2 to 30 mins by polyethylene glycol precipitation assay in presence of phosphatidylserine
[3] = Displacement of [20-3H]PDBu from GST-tagged mouse PKC-delta C1B domain S10R mutant expressed in Escherichia coli after 2 to 30 mins by polyethylene glycol precipitation assay in presence of phosphatidylserine
[4] = Displacement of [20-3H]PDBu from GST-tagged mouse PKC-delta C1B domain P11R mutant expressed in Escherichia coli after 2 to 30 mins by polyethylene glycol precipitation assay in presence of phosphatidylserine
[5] = Displacement of [20-3H]PDBu from GST-tagged mouse PKC-delta C1B domain L20R mutant expressed in Escherichia coli after 2 to 30 mins by polyethylene glycol precipitation assay in presence of phosphatidylserine
[6] = species: Mus musculus; experiment: Selectivity ratio of Ki for GST-tagged mouse PKC-delta C1B domain N7R mutant to Kd for GST-tagged full-length mouse PKC-delta C1B domain
[7] = species: Mus musculus; experiment: Selectivity ratio of Ki for GST-tagged mouse PKC-delta C1B domain S10R mutant to Kd for GST-tagged full-length mouse PKC-delta C1B domain
[8] = species: Mus musculus; experiment: Selectivity ratio of Ki for GST-tagged mouse PKC-delta C1B domain P11R mutant to Kd for GST-tagged full-length mouse PKC-delta C1B domain
[9] = species: Mus musculus; experiment: Selectivity ratio of Ki for GST-tagged mouse PKC-delta C1B domain L20R mutant to Kd for GST-tagged full-length mouse PKC-delta C1B domain
[10] = Displacement of [20-3H]PDBu from GST-tagged mouse PKC-delta C1B domain N7R/P11R mutant expressed in Escherichia coli after 2 to 30 mins by polyethylene glycol precipitation assay in presence of phosphatidylserine
[11] = Displacement of [20-3H]PDBu from GST-tagged mouse PKC-delta C1B domain N7R/L20R mutant expressed in Escherichia coli after 2 to 30 mins by polyethylene glycol precipitation assay in presence of phosphatidylserine
[12] = species: Mus musculus; experiment: Selectivity ratio of Ki for GST-tagged mouse PKC-delta C1B domain N7R/P11R mutant to Kd for GST-tagged full-length mouse PKC-delta C1B domain
[13] = species: Mus musculus; experiment: Selectivity ratio of Ki for GST-tagged mouse PKC-delta C1B domain N7R/L20R mutant to Kd for GST-tagged full-length mouse PKC-delta C1B domain
[14] = species: Mus musculus; experiment: Selectivity ratio of Kd for GST-tagged full-length mouse PKC-delta C1B domain to Ki for GST-tagged mouse PKC-delta C1B domain P11R mutant
[15] = Displacement of [20-3H]PDBu from GST-tagged mouse PKC-delta C1B domain N7R/S10R/P11R mutant expressed in Escherichia coli after 2 to 30 mins by polyethylene glycol precipitation assay in presence of phosphatidylserine
[16] = Displacement of [20-3H]PDBu from GST-tagged mouse PKC-delta C1B domain N7R/S10R/L20R mutant expressed in Escherichia coli after 2 to 30 mins by polyethylene glycol precipitation assay in presence of phosphatidylserine
[17] = species: Mus musculus; experiment: Selectivity ratio of Ki for GST-tagged mouse PKC-delta C1B domain N7R/S10R/P11R mutant to Kd for GST-tagged full-length mouse PKC-delta C1B domain
[18] = species: Mus musculus; experiment: Selectivity ratio of Ki for GST-tagged mouse PKC-delta C1B domain N7R/S10R/L20R mutant to Kd for GST-tagged full-length mouse PKC-delta C1B domain

Sequence of Protein kinase C delta type (P28867 whole entry, the tested form may be a part): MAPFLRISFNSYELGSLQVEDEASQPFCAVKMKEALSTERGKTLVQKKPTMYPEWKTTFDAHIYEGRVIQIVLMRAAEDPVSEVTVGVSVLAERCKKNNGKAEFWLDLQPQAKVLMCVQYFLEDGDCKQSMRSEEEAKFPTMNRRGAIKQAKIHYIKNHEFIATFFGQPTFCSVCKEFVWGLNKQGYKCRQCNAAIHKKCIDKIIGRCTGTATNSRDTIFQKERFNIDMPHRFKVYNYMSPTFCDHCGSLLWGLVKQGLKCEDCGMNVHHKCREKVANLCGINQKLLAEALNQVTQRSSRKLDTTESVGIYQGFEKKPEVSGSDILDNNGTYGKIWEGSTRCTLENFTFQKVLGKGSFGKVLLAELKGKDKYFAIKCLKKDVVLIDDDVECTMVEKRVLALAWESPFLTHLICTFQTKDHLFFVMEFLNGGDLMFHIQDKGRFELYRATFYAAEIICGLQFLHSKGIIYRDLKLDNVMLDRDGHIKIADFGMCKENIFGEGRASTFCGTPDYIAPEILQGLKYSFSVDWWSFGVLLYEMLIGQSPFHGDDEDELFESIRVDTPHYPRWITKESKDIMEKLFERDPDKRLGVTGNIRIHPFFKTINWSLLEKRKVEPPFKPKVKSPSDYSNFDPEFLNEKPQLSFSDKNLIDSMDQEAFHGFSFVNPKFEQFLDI

Compound | Kd [1] [nM] | Ki [2] [nM] | Ki [3] [nM] | Ki [4] [nM] | Ki [5] [nM] | Selectivity ratio [6] | Selectivity ratio [7] | Selectivity ratio [8] | Selectivity ratio [9] | Ki [10] [nM] | Ki [11] [nM] | Selectivity ratio [12] | Selectivity ratio [13] | Selectivity ratio [14] | Ki [15] [nM] | Ki [16] [nM] | Selectivity ratio [17] | Selectivity ratio [18]
CC(C)CC(CC(=O)OCC1(CO)C/C(=C\c2cccc(C(C(=O)OC(C)(C)C)C(=O)OC(C)(C)C)c2)C(=O)O1)CC(C)C (configuration not stated) | 0.5 | 0.6 | 0.6 | 1 | 8.8 | 1.2 | 1.2 | 2 | 17.6 |  |  |  |  |  |  |  |  | 
CC(C)(C)C(=O)OCC1(CO)C/C(=C\c2cccc(C(=O)O)c2)C(=O)O1 (configuration not stated) | 1210 | 1740 | 1760 | 3360 | 5500 | 1.44 | 1.46 | 2.79 | 4.57 | 16000 | 105000 | 13.2 | 87 |  |  |  |  | 
CC(C)(C)C(=O)OCC1(CO)C/C(=C\c2ccc(C(=O)O)cc2)C(=O)O1 (configuration not stated) | 1070 | 880 | 667 | 998 | 6140 | 0.82 | 0.62 | 0.93 | 5.74 | 3700 | 83400 | 3.49 | 78 |  |  |  |  | 
CC(C)C(CC(=O)OCC1(CO)C/C(=C\c2cccc(O)c2)C(=O)O1)C(C)C (configuration not stated) | 2.46 | 2.48 | 2.08 | 2.32 | 19.4 | 1.01 | 0.85 | 0.94 | 7.87 |  |  |  |  |  |  |  |  | 
CC(C)CC(CC(=O)OCC1(CO)C/C(=C\c2ccc(C(C(=O)OC(C)(C)C)C(=O)OC(C)(C)C)cc2)C(=O)O1)CC(C)C (configuration not stated) | 0.6 | 0.7 | 0.6 | 1.2 | 10.5 | 1.17 | 1 | 2 | 17.5 |  |  |  |  |  |  |  |  | 
CC(C)C(CC(=O)OCC1(CO)C/C(=C\c2cccc(C(=O)O)c2)C(=O)O1)C(C)C (configuration not stated) | 2100 | 640 | 840 | 421 | 2820 | 0.3 | 0.4 | 0.2 | 1.34 | 5190 | 45900 | 2.47 | 21.8 | 5 |  |  |  | 
CC(C)CC(C/C=C1\CC(CO)(COC(=O)C(C)(CO)CO)OC1=O)CC(C)C (configuration not stated) | 777 | 806 | 1120 | 2030 | 810 | 1.04 | 1.44 | 2.61 | 1.04 | 23800 | 7640 | 30.7 | 9.83 |  | 47000 | 7830 | 60.5 | 10.1
CC(C)C(CC(=O)OCC1(CO)C/C(=C\c2ccc(C(=O)O)cc2)C(=O)O1)C(C)C (configuration not stated) | 560 | 787 | 813 | 710 | 6900 | 1.41 | 1.45 | 1.27 | 12.4 | 3800 | 117000 | 6.79 | 209 |  |  |  |  | 
CC(C)C(CC(=O)OCC1(CO)C/C(=C\c2ccccc2O)C(=O)O1)C(C)C (configuration not stated) | 2.95 | 3.29 | 2.33 | 10.4 | 14 | 1.12 | 0.79 | 3.53 | 4.75 | 37 | 239 | 12.5 | 81 |  | 63 | 661 | 21.3 | 224
CC(C)CC(CC(=O)OCC1(CO)C/C(=C\c2cccc(C(=O)O)c2)C(=O)O1)CC(C)C (configuration not stated) | 300 | 281 | 468 | 100 | 1600 | 0.94 | 1.56 | 0.33 | 5.33 |  |  |  |  | 3 |  |  |  | 
CCCC(=O)O[C@@H]1[C@@H](C)[C@@]2(O)[C@@H](C=C(CO)C[C@]3(O)C(=O)C(C)=C[C@@H]23)[C@@H]2C(C)(C)[C@]12OC(=O)CCC | 0.23 | 1.18 | 0.32 |  | 8 |  |  |  |  | 33.8 | 480 |  |  |  | 19.6 | 1360 |  | 
CC(C)CC(CC(=O)OCC1(CO)C/C(=C\c2ccccc2C(C(=O)OC(C)(C)C)C(=O)OC(C)(C)C)C(=O)O1)CC(C)C (configuration not stated) | 1 | 0.9 | 1.5 | 1.7 | 17.3 | 0.9 | 1.5 | 1.7 | 17.3 |  |  |  |  |  |  |  |  | 
CC(C)CC(CC(=O)OCC1(CO)C/C(=C\c2ccc(C(=O)O)cc2)C(=O)O1)CC(C)C (configuration not stated) | 96 | 120 | 94 | 120 | 739 | 1.25 | 0.98 | 1.25 | 7.7 |  |  |  |  |  |  |  |  | 
CC(C)C(CC(=O)OCC1(CO)C/C(=C\c2ccc(O)cc2)C(=O)O1)C(C)C (configuration not stated) | 2.95 | 1.99 | 1.18 | 1.48 | 9.4 | 0.67 | 0.4 | 0.5 | 3.2 |  |  |  |  |  |  |  |  | 
CC(C)C(CC(=O)OCC1(CO)C/C(=C/c2ccc(C(=O)O)cc2)C(=O)O1)C(C)C (configuration not stated) | 865 | 473 | 496 | 940 | 2810 | 0.55 | 0.57 | 1.09 | 3.25 | 2810 | 51900 | 3.25 | 60 |  |  |  |  | 
